Laboratory results from patent US20210393810A1, “DIHYDRAZONE COMPOUNDS HAVING HIGH AFFINITY TO A BETA PROTEIN AND TAU PROTEIN, DERIVATIVES THEREOF AND USE THEREOF” (HTA CO., LTD., priority 2019, published 2021).

Legend:
[1] = molecular target: T1, Aβ1-42 aggregates (Homo sapiens, UniProt P05067); test: Competitive binding experiment with [125I]IMPY; conditions: competition with [125I]IMPY, Aβ1-42, 37° C., 3 hours
T1 construct: preparing Aβ1-42 proteins according to the known methods
Procedure: (1) formulating a 0.1% BSA solution with pH=7.4;
(2) preparing a radioligand [125I] IMPY according to the known methods; formulating [125I] IMPY into a solution of 60000-100000 cpm/100 μL for later use;
(3) formulating the compound to be tested into a 10^−5 to 10^−11 mol/L serially diluted ethanol solution;
(4) preparing Aβ1-42 proteins according to the known methods, and diluting it into an aqueous solution of about 30 nM;
(5) soaking a glass fiber filter membrane in PBS solution containing 0.1% polyethyleneimine for 30 minutes;
(6) adding 100 μL of the test compound solutions with different concentrations and 100 μL of [125I] IMPY solution, 700 μL of BSA solution and 100 μL of Aβ1-42 solution into a 12 mm×75 mm borosilicate glass tube, and vortexing;
(7) incubating with shaking in a constant temperature water bath at 37° C. for 3 hours;
(8) collecting the reaction solution by a multi-head cell collector, and rinsing the reaction solution for three times with 10% ethanol solution;
(9) measuring and counting with a gamma counter;
(10) analyzing and processing data using GraphPrad Prism 5.01 to obtain an affinity constant Ki.
Activity between some compounds and Aβ1-42 aggregates was quantitatively determined by the method.

[2] = Biodistribution experiment in normal mice; assay type: in vivo, mice (ICR, male); conditions: for biodistribution, blood / biodistribution, brain: normal ICR mice; for clearance from the brain / passage through the blood-brain barrier / time at which the brain uptake reaches its peak: normal mice; for time at which the brain uptake reaches its peak: after injection
Procedure: Pharmacokinetic properties in mice, especially the initial brain uptake and brain clearance, were studied through distribution experiments in vivo.
5-10 μCi labelled compounds (100 μL physiological saline solution, containing 10% ethanol) were injected into normal mice (ICR, male, 20-22 g, 5 weeks old) through the tail vein (n=5), and mice were decapitated at 2 minutes, 10 minutes, 30 minutes and 60 minutes after injection, respectively, and organs to be tested were took out by dissection, and the wet weight was measured and radioactive counting was conducted. Data is expressed as the percentage of radioactive dose per gram of organ (% ID/g).

[3] = 2 min after tail vein injection
[4] = 10 min after tail vein injection
[5] = 30 min after tail vein injection
[6] = 60 min after tail vein injection

T1 sequence (P05067 672-713): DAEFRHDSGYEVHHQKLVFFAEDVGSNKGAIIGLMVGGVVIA

| Structure (SMILES) | Ki [1] [nM] | biodistribution, blood [2, 3] [% ID/g] | biodistribution, blood [2, 4] [% ID/g] | biodistribution, blood [2, 5] [% ID/g] | biodistribution, blood [2, 6] [% ID/g] | biodistribution, brain [2, 3] [% ID/g] | biodistribution, brain [2, 4] [% ID/g] | biodistribution, brain [2, 5] [% ID/g] | biodistribution, brain [2, 6] [% ID/g] | clearance from the brain [2] | passage through the blood-brain barrier [2] | time at which the brain uptake reaches its peak [2] [min] |
| --- | --- | --- | --- | --- | --- | --- | --- | --- | --- | --- | --- | --- |
| CNc1ccc(/C=N/N=C/c2ccc(NC)cc2)cc1 [Compound 9] | 45.2 ± 18.4 |  |  |  |  |  |  |  |  |  |  |  |
| CCN(CC)c1ccc(/C=N/N=C/c2ccc(N(CC)CC)cc2)cc1 [Compound 11] | 5.1 ± 1.87 |  |  |  |  |  |  |  |  |  |  |  |
| C(=N\N=C\c1ccc(N2CCCC2)cc1)/c1ccc(N2CCCC2)cc1 [Compound 13] | 1.2 ± 0.25 |  |  |  |  |  |  |  |  |  |  |  |
| C(=N\N=C\c1ccc(N2CCCCC2)cc1)/c1ccc(N2CCCCC2)cc1 [Compound 14] | 1.39 ± 0.25 |  |  |  |  |  |  |  |  |  |  |  |
| C(=N\N=C\c1ccc(N2CCOCC2)cc1)/c1ccc(N2CCOCC2)cc1 [Compound 15] | 147 ± 2.06 |  |  |  |  |  |  |  |  |  |  |  |
| CN(C)c1ncc(/C=N/N=C/c2cnc(N(C)C)nc2)cn1 [Compound 17] | 124 ± 21.7 |  |  |  |  |  |  |  |  |  |  |  |
| CNc1ccc(/C=N/N=C/c2ccc(N(C)C)cc2)cc1 [Compound 36] | 35.1 ± 19.3 |  |  |  |  |  |  |  |  |  |  |  |
| CNc1ccc(/C=N/N=C/c2ccc(O)cc2)cc1 [Compound 63] | 277 ± 50.5 |  |  |  |  |  |  |  |  |  |  |  |
| CN(C)c1ccc(/C=N/N=C/c2ccc(OCCF)cc2)cc1 [Compound 87] | 5.17 ± 1.4 |  |  |  |  |  |  |  |  |  |  |  |
| CNc1ccc(/C=N/N=C/c2ccc(OCCF)cc2)cc1 [Compound 88] | 10.4 ± 6.71 |  |  |  |  |  |  |  |  |  |  |  |
| CN(C)c1ccc(/C=N/N=C/c2ccc(OCCOCCF)cc2)cc1 [Compound 89] | 2.45 ± 1.7 |  |  |  |  |  |  |  |  |  |  |  |
| CNc1ccc(/C=N/N=C/c2ccc(OCCOCCF)cc2)cc1 [Compound 90] | 8.07 ± 2.89 |  |  |  |  |  |  |  |  |  |  |  |
| CN(C)c1ccc(/C=N/N=C/c2ccc(OCCOCCOCCF)cc2)cc1 [Compound 91] | 6.38 ± 0.72 |  |  |  |  |  |  |  |  |  |  |  |
| CNc1ccc(/C=N/N=C/c2ccc(OCCOCCOCCF)cc2)cc1 [Compound 92] | 46.4 ± 15.5 |  |  |  |  |  |  |  |  |  |  |  |
| CN(C)c1ccc(/C=N/N=C/c2ccc(OCCOCCOCCF)nc2)cc1 [Compound 93] | 10.9 ± 0.97 |  |  |  |  |  |  |  |  |  |  |  |
| CNc1ccc(/C=N/N=C/c2ccc(OCCOCCOCCF)nc2)cc1 [Compound 94] | 42.9 ± 20.5 |  |  |  |  |  |  |  |  |  |  |  |
| CN(C)c1ccc(/C=N/N=C/c2ccc(OCC[18F])cc2)cc1 [[18F]87] |  | 3.98 ± 0.24 | 3.36 ± 0.19 | 3.00 ± 0.13 | 2.73 ± 0.42 | 10.66 ± 0.89 | 11.00 ± 0.80 | 6.69 ± 0.42 | 4.56 ± 0.58 | cleared faster in the brain of normal mice | can effectively pass through the blood-brain barrier | 2 |
| CNc1ccc(/C=N/N=C/c2ccc(OCC[18F])cc2)cc1 [[18F]88] |  | 3.32 ± 0.26 | 3.57 ± 0.34 | 3.31 ± 0.13 | 2.90 ± 0.32 | 9.21 ± 0.63 | 8.24 ± 0.36 | 4.81 ± 0.27 | 3.02 ± 0.15 | cleared faster in the brain of normal mice | can effectively pass through the blood-brain barrier | 2 |
| CN(C)c1ccc(/C=N/N=C/c2ccc(OCCOCC[18F])cc2)cc1 [[18F]89] |  | 2.95 ± 0.31 | 3.24 ± 1.25 | 4.78 ± 0.24 | 5.42 ± 0.65 | 10.88 ± 0.75 | 10.62 ± 0.58 | 6.06 ± 0.38 | 4.55 ± 0.48 | cleared faster in the brain of normal mice | can effectively pass through the blood-brain barrier | 2 |
| CNc1ccc(/C=N/N=C/c2ccc(OCCOCC[18F])cc2)cc1 [[18F]90] |  | 3.72 ± 0.44 | 3.85 ± 0.26 | 4.90 ± 0.61 | 5.44 ± 0.40 | 11.05 ± 1.70 | 7.81 ± 0.60 | 4.92 ± 0.41 | 3.97 ± 0.28 | cleared faster in the brain of normal mice | can effectively pass through the blood-brain barrier | 2 |
| CN(C)c1ccc(/C=N/N=C/c2ccc(OCCOCCOCC[18F])cc2)cc1 [[18F]91] |  | 3.08 ± 0.45 | 2.86 ± 0.28 | 3.83 ± 0.27 | 3.66 ± 0.40 | 10.39 ± 1.07 | 7.56 ± 0.91 | 2.93 ± 0.13 | 1.60 ± 0.10 | cleared faster in the brain of normal mice | can effectively pass through the blood-brain barrier | 2 |
| CNc1ccc(/C=N/N=C/c2ccc(OCCOCCOCC[18F])cc2)cc1 [[18F]92] |  | 3.81 ± 0.35 | 3.06 ± 0.49 | 3.26 ± 0.17 | 3.05 ± 0.45 | 7.84 ± 0.50 | 3.94 ± 0.13 | 1.88 ± 0.03 | 1.17 ± 0.07 | cleared faster in the brain of normal mice | can effectively pass through the blood-brain barrier | 2 |
| CN(C)c1ccc(/C=N/N=C/c2ccc(OCCOCCOCC[18F])nc2)cc1 [[18F]93] |  | 3.53 ± 0.24 | 3.16 ± 1.00 | 3.64 ± 0.29 | 2.46 ± 0.33 | 11.39 ± 1.08 | 5.55 ± 0.37 | 2.41 ± 0.22 | 1.44 ± 0.15 | cleared faster in the brain of normal mice | can effectively pass through the blood-brain barrier | 2 |
| CNc1ccc(/C=N/N=C/c2ccc(OCCOCCOCC[18F])nc2)cc1 [[18F]94] |  | 4.30 ± 0.09 | 3.40 ± 0.28 | 3.66 ± 0.18 | 2.59 ± 0.15 | 8.59 ± 0.57 | 4.09 ± 0.38 | 2.40 ± 0.15 | 1.36 ± 0.13 | cleared faster in the brain of normal mice | can effectively pass through the blood-brain barrier | 2 |
